From US20060062841A1, “Liposomal vectors” (priority 2004, published 2006)

Experiments:
TNF-α = test: Cytokine assay in the blood: TNF-α; format: in vivo, mouse
Experimental: FIG. 3A-C. Comparison the levels of TNF-α in blood (a), organs (b) and the blood levels of IL-12 and IFN-γ (c) after injection of the lipoplexes and safeplexes. The charge ratio of DOTA to DNA (+/−) (a) was varied from 0 to 12 and (b) and (c) was fixed at 6 to 1. The levels of cytokines were detected 2 h (a,b) or 6 h (c) after injection of the lipoplexes and safeplexes containing 25 μg pDNA. P<0.001 (three mice in each group).
FIG. 4A-B. Effect of (A) DEX dose and (B) time course on suppressing TNF-α. Mice were (three in each group) injected with the lipoplexes or safeplexes with (A) a varied ratio of DEX to DOTAP and (B) with a ratio of DEX to DOTAP of 1/10 (w/w). (a, b) The charge ratio of DOTAP to DNA was fixed at 6 to 1. P>0.5, P<0.001
FIG. 5. Inhibition of TNF-α production by other suppressors. The levels of TNF-α in the blood were analyzed 2 h after the injection of lipoplexes and safeplexes with a charge ratio of DNA to DOTAP of 1/6 (mol/mol). P<0.001 (n=3).
At indicated time points (2 h for TNF-α, 6 h for IL-12 and IFN-γ) following the injection of a tested sample containing 25 μg of pDNA, the blood and organs (the liver, lung and spleen) were collected. The blood was allowed to clot on ice for at least 4 h and then centrifuged at 3000 g for 20 min at 4° C., and serum was collected for the cytokine assay. For the organ assay, […] of each organ was added with 0.5 ml PBS buffer and homogenized for 20 s at the highest speed. The homogenates were frozen (in liquid nitrogen) and thawed (in 37° C. water bath) three times and then centrifuged at 14,000 g for 5 min. The supernatants were collected for the cytokine assay. The concentrations of cytokines (TNF-α, IL-12 and IFN-γ) were determined with mouse cytokine immunoassay kits (R&D System, Minneapolis, Minn.). Data were analyzed by the paired Student's t test using Excel. Data were considered statistically significant if P<0.01.

immune cells = settings: sublethally irradiated mice, intraperitoneal injection; cited from earlier work

Molecule	effect on TNF-α production in blood (TNF-α; mouse, in vivo)	also measured
CN1C(=O)[C@]23CC4=CC=C[C@H](O)[C@H]4N2C(=O)[C@@]1(CO)SS3 [gliotoxin]		effect on TNF-α production in blood (TNF-α; carried by safeplexes, inhibitor/DOTAP 1/6 mol/mol, 2 h after injection): showed the inhibitory effect; recovery of immune cells (immune cells): significant delay
COc1ccc2c(c1)c(CC(=O)O)c(C)n2C(=O)c1ccc(Cl)cc1 [indomethacin]	showed the inhibitory effect	
C[C@]12C=CC(=O)C=C1CC[C@@H]1[C@@H]2C(=O)C[C@@]2(C)[C@H]1CC[C@]2(O)C(=O)CO [prednisone]	showed the inhibitory effect	
COc1ccc2cc1Oc1ccc(cc1)C[C@H]1c3cc(c(OC)cc3CCN1C)Oc1c(OC)c(OC)cc3c1[C@H](C2)N(C)CC3 [tetrandrine]	showed the inhibitory effect	
Dexamethasone-Water Soluble [free DEX]		inhibition of TNF-α (TNF-α; 32 μg free DEX intravenously, immediately followed by DNA/DOTAP complexes): less than 45%
